Data on eight compounds can be found in the NIST ThermoML archive (doi:10.1007/s10765-011-1086-8).

Numbers after ± are expanded uncertainties.

Data set [1] in a line: relative permittivity at various frequencies (dimensionless). The settings on record: 303.15 K, 101 kPa, Liquid, Frequency=1 MHz.
A short description of data set [2]: relative permittivity at various frequencies (dimensionless); xn = mol fraction of the nth substance listed. The settings on record: 303.15 K, 101 kPa, Liquid, Frequency=1 MHz, Parallel plate capacitor.

In the case of `CN(C)C=O` [dimethylformamide], in data set [1] (Parallel plate capacitor), the relative permittivity is on record as 36.55 ± 0.22.

In the case of `C[S+](C)[O-]` [dimethyl sulfoxide], the relative permittivity in data set [1] stood at 46.05 ± 0.28.

On to `C1COCCO1` [1,4-dioxane], for which the relative permittivity in data set [1] (Parallel plate capacitor) is 2.26 ± 0.014.

For `NC=O` [formamide] + CN(C)C=O, the relative permittivity in data set [2] (x1 = 0.122) came out at 40.58 ± 0.24; in data set [2] (x1 = 0.23) it was 45 ± 0.27; in data set [2] (x1 = 0.327), 49.26 ± 0.3; in data set [2] (x1 = 0.414) it was 53.6 ± 0.32; in data set [2] (x1 = 0.493), 58.17 ± 0.35; in data set [2] (x1 = 0.5), 58.5 ± 0.35. For the same compound, the relative permittivity in data set [2] (x1 = 0.565) amounted to 63.22 ± 0.38; in data set [2] (x1 = 0.63) it was 67.66 ± 0.41; in data set [2] (x1 = 0.69), 72.58 ± 0.44; in data set [2] (x1 = 0.745) it was 77.4 ± 0.46; in data set [2] (x1 = 0.796), 82.52 ± 0.5; in data set [2] (x1 = 0.843), 86.95 ± 0.52. The relative permittivity in data set [2] (x1 = 0.886) came to 91.84 ± 0.55; in data set [2] (x1 = 0.927), 96.1 ± 0.58; in data set [2] (x1 = 0.965) it was 101.77 ± 0.61; in data set [2] (x1 = 1) it was 106.14 ± 0.64.

On to `CN(C)C=O` [dimethylformamide] + NC=O, for which the relative permittivity in data set [2] (x2 = 0) came to 36.55 ± 0.22.

With `NC=O` [formamide] + NCCO, the relative permittivity came to 36.91 ± 0.22 in data set [2] (x1 = 0.144); 44.61 ± 0.27 in data set [2] (x1 = 0.275); 52.04 ± 0.31 in data set [2] (x1 = 0.394); 59.52 ± 0.36 in data set [2] (x1 = 0.5); 59.14 ± 0.35 in data set [2] (x1 = 0.503); 66.34 ± 0.4 in data set [2] (x1 = 0.603). In addition, the relative permittivity in data set [2] (x1 = 0.695) is given as 74.02 ± 0.44; in data set [2] (x1 = 0.78), 81.77 ± 0.49; in data set [2] (x1 = 0.859) it was 90.12 ± 0.54; in data set [2] (x1 = 0.932), 97.77 ± 0.59; in data set [2] (x1 = 1), 106.14 ± 0.64.

Consider `O` [water], for which the relative permittivity in data set [1] (Parallel plate capacitor) is 76.53 ± 0.46.

For the compound `NC=O` [formamide], the relative permittivity in data set [1] (Parallel plate capacitor) was determined as 106.14 ± 0.64.
